Results on 1 molecule are retold here after paper PMC11397024, “Strategic Fluorination to Achieve a Potent, Selective, Metabolically Stable, and Orally Bioavailable Inhibitor of CSNK2” (Molecules, 2024).

Structures are written as SMILES.

In general, fraction unbound refers to the share of the substance not bound to proteins or other matrix.

One series addresses T1, CSNK2A2 (Homo sapiens, UniProt P19784).
T1 construct: expressed in transfected cells; host or cells: HEK293
As to the kind of experiment: NanoBRET assay CSNK2A2. The format is cell-based. The settings on record: HEK293 cells, singlicate, read-out: CSNK2A2 pIC50 (converted). The method, then:
Assays were run using a modified version of the previously published protocols. […] A transfection complex of DNA (10 μg/mL) was generated consisting of 9 μg/mL carrier DNA (Promega, Madison, WI, USA) and 1 μg/mL CSNK2A-NLuc fusion DNA in Opti-MEM without serum (Gibco). FuGENE HD (Promega) was added at 30 μL/mL to form a lipid–DNA complex. The solution was then mixed and incubated at room temperature for 20 min. The transfection complex was mixed with a 20× volume of HEK293 cells in DMEM/FBS to arrive at a final concentration of 200,000 cells/mL, and 100 μL/well was added to a 96-well plate that was incubated overnight at 37 °C and 5% CO2. The following day, the medium was removed via aspiration and replaced with 85 μL of Opti-MEM without phenol red. A total of 5 μL per well of 20× NanoBRET Tracer K10 (Promega) at 10 μM for CSNK2A1 or 5 μM for CSNK2A2 in Tracer Dilution Buffer (Promega N291B) was added to all wells, except the “no tracer” control wells. Test compounds (10 mM in DMSO) were diluted 100× in Opti-MEM media to prepare stock solutions and evaluated at 11 concentrations. A total of 10 μL per well of the 10-fold test compound stock solutions (final assay concentration of 0.1% DMSO) were added. […] The plates were read within 30 min on a GloMax Discover luminometer (Promega) equipped with a 450 nm BP filter (donor) and 600 nm LP filter (acceptor) using 0.3 s of integration time. […]
(In general: BRET reads energy transfer from a luciferase to a nearby fluorophore.)

A short description of series [1]: Unbound fraction in mouse plasma. Format: in vitro ADME. The conditions noted are these: read-out: unbound fraction in mouse plasma (fu).
For series [2], the system named is mouse hepatitis virus (MHV). The experiment in a line: MHV assay (MHV-nLuc in DBT cells). The conditions noted are these: Murine coronavirus, read-out: MHV pIC50 (converted).
Description: DBT cells were cultured at 37 °C in Dulbecco’s modified Eagle medium (DMEM; Sigma-Aldrich, St. Louis, MO, USA) supplemented with 10% fetal bovine serum (FBS; Avantor, Randor, PA, USA) and penicillin and streptomycin (Sigma-Aldrich, St. Louis, MO, USA). DBT cells were plated in 96-well plates to be 80% confluent at the start of the assay. Test compounds or positive control EIDD-1931 were diluted to 15 μM in DMEM. Serial 4-fold dilutions were made in DMEM, providing a concentration range of 15–0.22 μM. Media were aspirated from the DBT cells, and 100 μL of the diluted test compounds was added to the cells for 1 h at 37 °C. After 1 h, MHV-nLuc5 was added at an MOI of 0.1 in 50 μL of DMEM so that the final concentration of the first dilution of the compound was 10 μM (T = 0). After 10 h, the media were aspirated, and the cells were washed with PBS and lysed with passive lysis 5X buffer (Promega, Madison, WI, USA) for 20 min at room temperature. Relative light units (RLUs) were measured using a luminometer (Promega; GloMax, Madison, WI, USA). Triplicate data were analyzed in GraphPad Prism version 9.4.1 for macOS to generate IC50 values.

T1 sequence (P19784 whole entry): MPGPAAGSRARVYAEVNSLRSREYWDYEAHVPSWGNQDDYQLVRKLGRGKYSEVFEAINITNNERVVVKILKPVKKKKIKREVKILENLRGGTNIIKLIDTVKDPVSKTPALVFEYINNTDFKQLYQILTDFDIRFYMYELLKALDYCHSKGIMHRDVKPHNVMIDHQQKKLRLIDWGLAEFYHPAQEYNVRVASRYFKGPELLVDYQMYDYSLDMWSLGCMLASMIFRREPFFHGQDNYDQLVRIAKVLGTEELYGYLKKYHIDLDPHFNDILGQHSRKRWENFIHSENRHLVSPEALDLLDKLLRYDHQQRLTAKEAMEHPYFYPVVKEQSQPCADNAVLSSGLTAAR

With `CCC(=O)Nc1cc(Nc2cc(NC3CC3)n3ncc(C#N)c3n2)c(F)cc1N1CCC[C@H](NC)C1` [Compound 2, (S)-N-(5-((3-cyano-7-(cyclopropylamino)pyrazolo[1,5-a]pyrimidin-5-yl)amino)-4-fluoro-2-(3-(methylamino)piperidin-1-yl)phenyl)propionamide], the IC50 on CSNK2A2 is 12.6 nM; in series [2], 158 nM. Besides, in series [1], the fraction unbound amounted to 0.0605.
